Data as given in US20130267494A1, “1,4-OXAZEPANE DERIVATIVES” (priority 2010, published 2013).
Structures can show the parent of a compound that is named as a salt. Where two headings read alike, the source gives them in different places.

Legend:
Format in all cases: cell-based
[1] = biological target: T1, human serotonin transporter (Homo sapiens, UniProt P31645); experiment: Inhibitory action on human serotonin transporter ([3H]-5-hydroxytryptamine uptake in CHO cells); conditions: relative to inhibitory activity of 10 μM Paroxetine as 100%
T1 construct: expressed in transfected cells
T1 sequence (P31645 whole entry): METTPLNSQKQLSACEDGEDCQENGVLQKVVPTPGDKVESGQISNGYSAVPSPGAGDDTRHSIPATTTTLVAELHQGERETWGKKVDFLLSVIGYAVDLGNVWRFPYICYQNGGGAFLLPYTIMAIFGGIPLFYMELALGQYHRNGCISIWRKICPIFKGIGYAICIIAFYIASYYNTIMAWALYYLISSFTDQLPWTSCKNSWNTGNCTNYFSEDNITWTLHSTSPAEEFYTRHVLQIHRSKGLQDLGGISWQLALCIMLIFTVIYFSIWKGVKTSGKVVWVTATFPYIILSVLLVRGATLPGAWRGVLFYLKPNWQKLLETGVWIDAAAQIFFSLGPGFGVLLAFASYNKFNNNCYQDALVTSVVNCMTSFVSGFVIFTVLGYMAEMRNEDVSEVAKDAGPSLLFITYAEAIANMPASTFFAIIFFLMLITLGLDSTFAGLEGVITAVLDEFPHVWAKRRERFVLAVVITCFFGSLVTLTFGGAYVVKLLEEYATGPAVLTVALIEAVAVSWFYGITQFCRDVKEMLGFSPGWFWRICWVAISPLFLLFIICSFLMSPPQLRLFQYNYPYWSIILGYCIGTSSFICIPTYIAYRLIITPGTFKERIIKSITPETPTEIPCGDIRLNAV
In short: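 CHO-K1 cells stably expressing human SERT, plated overnight, took up [3H]-5-HT (diluted to 200 nM before a 1:10 addition) for 20 min in HEPES-buffered saline with glucose and 0.5% BSA; radioactivity counted by scintillation. Compounds at 10 μM or 1 μM, activity expressed relative to 10 μM paroxetine set as 100%.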

[2] = biological target: T2, human norepinephrine transporter (Homo sapiens, UniProt P23975); experiment: Inhibitory action on human norepinephrine transporter ([3H]-norepinephrine uptake in CHO cells); conditions: relative to inhibitory activity of 10 μM DMI as 100%
T2 construct: expressed in transfected cells
T2 sequence (P23975 whole entry): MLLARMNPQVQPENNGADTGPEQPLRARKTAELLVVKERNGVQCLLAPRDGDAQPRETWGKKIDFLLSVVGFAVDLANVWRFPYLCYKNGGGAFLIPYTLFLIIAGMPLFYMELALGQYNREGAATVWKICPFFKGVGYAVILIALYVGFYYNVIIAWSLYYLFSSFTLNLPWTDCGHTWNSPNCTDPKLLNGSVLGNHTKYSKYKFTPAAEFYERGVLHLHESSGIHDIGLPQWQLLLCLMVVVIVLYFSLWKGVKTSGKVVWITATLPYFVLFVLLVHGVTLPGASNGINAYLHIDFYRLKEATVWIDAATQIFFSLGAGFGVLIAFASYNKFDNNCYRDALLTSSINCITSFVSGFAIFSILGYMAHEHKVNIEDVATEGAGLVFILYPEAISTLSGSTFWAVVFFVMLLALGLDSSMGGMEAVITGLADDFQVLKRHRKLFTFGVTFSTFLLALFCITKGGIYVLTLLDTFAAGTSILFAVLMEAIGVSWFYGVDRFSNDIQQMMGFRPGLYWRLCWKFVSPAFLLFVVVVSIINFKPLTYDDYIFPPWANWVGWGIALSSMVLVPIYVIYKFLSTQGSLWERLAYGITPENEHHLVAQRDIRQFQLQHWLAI
In short: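 Stably transfected CHO-K1 cells plated overnight, then given test compound and [3H]-norepinephrine (20 nM final, from 200 nM) in HEPES-buffered saline with 0.5% BSA for 45 min. After PBS washes, retained radioactivity counted by scintillation. Inhibition at 10 μM or 1 μM compound expressed relative to 10 μM DMI as 100%.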

[3] = biological target: T3, human dopamine transporter (Homo sapiens, UniProt Q01959); experiment: Inhibitory action on human dopamine transporter ([3H]-dopamine uptake in CHO cells); conditions: relative to inhibitory activity of 100 μM Nomifensine as 100%
T3 construct: expressed in transfected cells
T3 sequence (Q01959 whole entry): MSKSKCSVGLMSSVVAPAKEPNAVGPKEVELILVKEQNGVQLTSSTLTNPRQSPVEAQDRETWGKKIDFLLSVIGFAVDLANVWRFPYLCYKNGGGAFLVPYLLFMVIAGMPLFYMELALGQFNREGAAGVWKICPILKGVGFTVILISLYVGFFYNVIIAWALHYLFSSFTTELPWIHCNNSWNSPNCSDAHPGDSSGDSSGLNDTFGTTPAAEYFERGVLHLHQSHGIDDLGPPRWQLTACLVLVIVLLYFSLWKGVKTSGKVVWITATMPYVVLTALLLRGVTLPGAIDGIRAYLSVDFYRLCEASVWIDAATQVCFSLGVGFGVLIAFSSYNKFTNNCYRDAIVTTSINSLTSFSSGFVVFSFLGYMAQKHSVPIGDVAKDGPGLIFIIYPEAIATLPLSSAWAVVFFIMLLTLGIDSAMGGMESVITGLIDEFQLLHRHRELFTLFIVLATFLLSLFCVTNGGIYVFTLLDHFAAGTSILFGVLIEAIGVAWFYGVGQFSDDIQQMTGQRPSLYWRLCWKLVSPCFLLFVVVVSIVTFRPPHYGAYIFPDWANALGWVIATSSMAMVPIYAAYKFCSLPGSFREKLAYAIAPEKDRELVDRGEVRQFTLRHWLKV
In short: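 CHO-K1 cells stably expressing human dopamine transporter, exposed to compound at 10 μM or 1 μM in HEPES-buffered saline with 0.5% BSA. [3H]-dopamine uptake measured over 60 min by scintillation counting. Activity expressed relative to 100 μM nomifensine as 100%.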

[4] = CHO, compound 1 μM, read-out: inhibitory rate (%)
[5] = CHO, read-out: inhibitory rate (%), compound 1 μM
[6] = CHO, compound 10 μM, read-out: inhibitory rate (%)

Row | inhibition at 1 µM [1, 4] | inhibition at 1 µM [3, 4] | inhibition at 1 µM [2, 4] | Structure (SMILES) | other results
1 | 82% | 25% | 97% | NS(=O)(=O)NCC1(c2ccc(Cl)c(Cl)c2)CCNCCO1 (racemic) [Example 22, N-{[(7RS)-7-(3,4-dichlorophenyl)-1,4-oxazepan-7-yl]methyl}sulfamide monohydrochloride] | inhibition at 10 µM ([1]; CHO, compound 10 μM, CHO cells expressing human serotonin transporter, read-out: inhibitory rate (%)): 98%; inhibition at 10 µM [2, 6]: 99%; inhibition at 10 µM [3, 6]: 63%
2 | 100% | 47% | 101% | O=C(NC[C@@H]1CNCCO[C@H]1c1ccc(Cl)c(Cl)c1)c1cc(-c2noc(=O)[nH]2)ccn1 [Example 146, N-{[(6S,7R)-7-(3,4-dichlorophenyl)-1,4-oxazepan-6-yl]methyl}-4-(5-oxo-4,5-dihydro-1,2,4-oxadiazol-3-yl)pyridine-2-carboxamide monohydrochloride] | –
3 | 81% | 100% | 106% | O=c1[nH]nc(-c2cccnc2O[C@@H]2CNCCO[C@H]2c2ccc(Cl)c(F)c2)[nH]1 [Example 558, 5-(2-{[(6R,7S)-7-(4-chloro-3-fluorophenyl)-1,4-oxazepan-6-yl]oxy}pyridin-3-yl)-2,4-dihydro-3H-1,2,4-triazol-3-one monohydrochloride] | –
4 | 94% | 60% | 105% | CC(=O)N[C@H]1CNCCO[C@@H]1c1ccc(Cl)c(Cl)c1 [Example 240, N-[(6S,7R)-7-(3,4-dichlorophenyl)-1,4-oxazepan-6-yl]acetamide monohydrochloride] | –
5 | 100% | 64% | 98% | CS(=O)(=O)C[C@@H]1CNCCO[C@@H]1c1ccc(Cl)c(Cl)c1 (racemic) [Example 50, (6RS,7SR)-7-(3,4-dichlorophenyl)-6-[(methylsulfonyl)methyl]-1,4-oxazepane monohydrochloride] | –
6 | 94% | 81% | 108% | O=C1NCCCN1C[C@H]1OCCNC[C@H]1c1ccc(Cl)c(Cl)c1 [Example 545, 1-{[(6R,7S)-6-(3,4-dichlorophenyl)-1,4-oxazepan-7-yl]methyl}tetrahydropyrimidin-2(1H)-one monohydrochloride] | –
7 | 46% | 25% | 104% | O=C(CO)NC[C@@H]1OCCNC[C@H]1c1ccc(Cl)c(Cl)c1 [Example 507, N-{[(6R,7R)-6-(3,4-dichlorophenyl)-1,4-oxazepan-7-yl]methyl}-2-hydroxyacetamide monohydrochloride] | –
8 | 38% | 60% | 102% | CS(=O)(=O)NC[C@H]1OCCNC[C@H]1c1ccc(Cl)c(Cl)c1 [Example 467, N-{[(6R,7S)-6-(3,4-dichlorophenyl)-1,4-oxazepan-7-yl]methyl}methanesulfonamide monohydrochloride] | –
9 | 46% | 1% | 98% | CO[C@@]1(CNC(C)=O)CNCCO[C@H]1c1ccc(Cl)c(F)c1 (relative stereo) [Example 561, N-{[(6R*,7S*)-7-(4-chloro-3-fluorophenyl)-6-methoxy-1,4-oxazepan-6-yl]methyl}acetamide monohydrochloride (retention time long)] | –
10 | 82% | 53% | 104% | O=c1cccnn1C[C@@H]1OCCNC[C@H]1c1ccc(Cl)c(Cl)c1 [Example 515, 2-{[(6R,7R)-6-(3,4-dichlorophenyl)-1,4-oxazepan-7-yl]methyl}pyridazin-3(2H)-one monohydrochloride] | –
11 | 53% | 58% | 100% | COC[C@@H]1OCCNC[C@@H]1c1ccc(Cl)c(Cl)c1 (racemic) [Example 449, (6RS,7SR)-6-(3,4-dichlorophenyl)-7-(methoxymethyl)-1,4-oxazepane monohydrochloride] | –
12 | 42% | 3% | 94% | CC(=O)[C@@H]1CNCCO[C@H]1c1ccc(Cl)c(Cl)c1 [Example 216, 1-[(6R,7R)-7-(3,4-dichlorophenyl)-1,4-oxazepan-6-yl]ethanone monohydrochloride] | –
13 | 97% | 98% | 104% | O=c1[nH]c(-c2cccnc2OC2CNCCOC2c2ccc(Cl)c(Cl)c2)no1 (stereo not drawn) [Example 525, 3-(2-{[(6R*,7S*)-7-(3,4-dichlorophenyl)-1,4-oxazepan-yl]oxy}pyridin-3-yl)-1,2,4-oxadiazol-5(4H)-one monohydrochloride (retention time long)] | –
14 | 27% | 47% | 101% | O=C(Cn1cncn1)NC[C@@H]1OCCNC[C@@H]1c1ccc(Cl)c(Cl)c1 (racemic) [Example 457, N-{[(6RS,7SR)-6-(3,4-dichlorophenyl)-1,4-oxazepan-7-yl]methyl}-2-(1H-1,2,4-triazol-1-yl)acetamide monohydrochloride] | –
15 | 87% | 2% | 103% | CC(=O)N(C)C[C@]1(O)CNCCO[C@H]1c1ccc(Cl)c(F)c1 (relative stereo) [Example 563, N-{[(6R*,7S*)-7-(4-chloro-3-fluorophenyl)-6-hydroxy-1,4-oxazepan-6-yl]methyl}-N-methylacetamide monohydrochloride (retention time short)] | –
16 | – | – | – | OC[C@H]1NCCOC[C@@H]1c1ccc(Cl)c(Cl)c1 (racemic) [Example 14, [(5RS,6SR)-6-(3,4-dichlorophenyl)-1,4-oxazepan-5-yl]methanol monohydrochloride] | inhibitory rate (%) ([1]; compound 1 μM): 31%; inhibitory rate (%) ([1]; compound 10 μM, CHO cells expressing human serotonin transporter): 79%; inhibitory rate (%) ([2]; compound 1 μM): 98%; inhibitory rate (%) ([2]; compound 10 μM): 100%; inhibitory rate (%) ([3]; compound 1 μM): 87%; inhibitory rate (%) ([3]; compound 10 μM): 99%
17 | 70% | 27% | 104% | OC[C@@H](O)[C@@H]1OCCNC[C@H]1c1ccc(Cl)c(Cl)c1 [Example 46, (1R)-1-[(6R,7R)-6-(3,4-dichlorophenyl)-1,4-oxazepan-7-yl]ethane-1,2-diol monohydrochloride] | –
18 | 56% | 24% | 105% | Cc1ccc([C@H]2OCCNC[C@@H]2CNS(C)(=O)=O)cc1Cl (relative stereo) [Example 409, N-{[(6R,7S)-7-(3-chloro-4-methylphenyl)-1,4-oxazepan-6-yl]methyl}methanesulfonamide monohydrochloride] | –
19 | 93% | 88% | 103% | O=c1nc(-c2ccccc2S(=O)(=O)C[C@@H]2CNCCO[C@H]2c2ccc(Cl)c(Cl)c2)[nH]o1 [Example 167, 3-[2-({[(6R,7R)-7-(3,4-dichlorophenyl)-1,4-oxazepan-6-yl]methyl}sulfonyl)phenyl]-1,2,4-oxadiazol-5(2H)-one monohydrochloride] | –
20 | 28% | 68% | 99% | OC[C@H](O)[C@H]1OCCNC[C@H]1c1ccc(Cl)c(Cl)c1 [Example 578, (1S)-1-[(6R, 7S)-6-(3,4-dichloro-phenyl)-1,4-oxazepan-7-yl]ethane-1,2-diol] | –

Row | Structure (SMILES) | inhibition at 1 µM [1, 4] | inhibition at 1 µM [3, 4] | inhibition at 1 µM [2, 4] | other results
21 | NC(=O)NC[C@@H]1CNCCO[C@H]1c1ccc(Cl)c(Cl)c1 [Example 152, 1-{[(6S,7R)-7-(3,4-dichlorophenyl)-1,4-oxazepan-6-yl]methyl}urea monofumarate] | 89% | 59% | – | inhibition at 1 µM [2, 5]: 95%
22 | OC[C@@H]1CNCCO[C@H]1c1ccc(F)c(Cl)c1 [Example 284, [(6S,7R)-7-(3-chloro-4-fluorophenyl)-1,4-oxazepan-6-yl]methanol monofumarate] | 34% | 11% | – | inhibition at 1 µM [2, 5]: 96%
23 | O=C1NCCCN1C[C@@H]1CNCCO[C@H]1c1ccc(Cl)c(F)c1 [Example 372, 1-{[(6S,7R)-7-(4-chloro-3-fluorophenyl)-1,4-oxazepan-6-yl]methyl}tetrahydropyrimidin-2(1H)-one monohydrochloride] | 98% | 97% | – | inhibition at 1 µM [2, 5]: 103%
